Patent US6184018A, “β-glucosidase coding sequences and protein from orpinomyces PC-2” (University of Georgia Research Foundation, Inc., priority 1999, dated 2001)
Read-outs that look alike come from different tables or passages of the source.

Tests used:
[1] = test system: native β-glucosidase of Orpinomyces PC-2; details: Chen et al. (1994), cited from earlier work
[2] = test system: β-glucosidase from T. reesei; details: Chen et al. (1992), cited from earlier work
[3] = molecular target: β-glucosidase from Aspergillus niger (Aspergillus niger, UniProt A2RAL4); details: read-out: Cellobiose affinity (Km); Hoh et al. (1992); cited from earlier work
Chain of β-glucosidase from Aspergillus niger (A2RAL4 20-860): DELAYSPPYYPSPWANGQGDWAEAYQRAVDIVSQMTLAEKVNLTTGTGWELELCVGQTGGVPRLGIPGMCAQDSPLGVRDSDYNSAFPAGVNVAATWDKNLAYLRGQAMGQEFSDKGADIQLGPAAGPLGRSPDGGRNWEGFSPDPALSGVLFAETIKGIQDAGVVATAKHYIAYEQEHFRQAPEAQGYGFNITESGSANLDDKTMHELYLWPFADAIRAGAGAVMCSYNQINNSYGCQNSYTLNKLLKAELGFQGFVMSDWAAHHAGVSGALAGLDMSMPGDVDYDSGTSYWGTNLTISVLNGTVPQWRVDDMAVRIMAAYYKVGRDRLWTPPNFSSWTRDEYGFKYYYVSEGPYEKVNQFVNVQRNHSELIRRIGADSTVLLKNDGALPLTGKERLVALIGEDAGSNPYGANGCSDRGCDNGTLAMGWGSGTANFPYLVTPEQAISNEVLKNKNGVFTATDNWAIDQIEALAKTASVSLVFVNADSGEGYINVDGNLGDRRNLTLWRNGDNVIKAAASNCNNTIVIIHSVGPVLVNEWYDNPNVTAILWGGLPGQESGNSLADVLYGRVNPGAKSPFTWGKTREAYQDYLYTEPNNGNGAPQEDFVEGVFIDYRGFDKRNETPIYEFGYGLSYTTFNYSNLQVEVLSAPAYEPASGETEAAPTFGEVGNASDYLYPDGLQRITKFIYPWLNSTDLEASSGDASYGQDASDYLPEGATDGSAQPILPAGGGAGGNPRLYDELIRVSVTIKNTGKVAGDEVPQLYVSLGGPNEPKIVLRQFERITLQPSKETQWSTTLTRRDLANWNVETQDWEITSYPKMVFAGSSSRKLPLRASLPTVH

[4] = test system: β-glucosidase from Aspergillus nidulans; details: Kwon et al. (1992), cited from earlier work
[5] = test system: β-glucosidase from Aureobasidium pullulans; details: Saha et al. (1995), cited from earlier work
[6] = test system: β-glucosidase from Thermotoga sp; details: Ruthersmith and Daniel (1993), cited from earlier work
[7] = test system: β-glucosidase from Sporotrichum thermophile; details: Bhat et al. (1993), cited from earlier work
[8] = test system: β-glucosidase from Clostridium thermocellum; details: Katayeva et al. (1992); read-out: Cellobiose affinity (Km); cited from earlier work
[9] = molecular target: T1, Orpinomyces sp. strain PC-2 β-glucosidase BglA, recombinant, secreted from S. cerevisiae, SEQ ID NO:2 (Orpinomyces sp. PC-2, UniProt Q9UUQ3); assay: Kinetic parameters of purified secreted recombinant BglA (Lineweaver-Burk plots); assay type: biochemical
T1 sequence (Q9UUQ3 17-657): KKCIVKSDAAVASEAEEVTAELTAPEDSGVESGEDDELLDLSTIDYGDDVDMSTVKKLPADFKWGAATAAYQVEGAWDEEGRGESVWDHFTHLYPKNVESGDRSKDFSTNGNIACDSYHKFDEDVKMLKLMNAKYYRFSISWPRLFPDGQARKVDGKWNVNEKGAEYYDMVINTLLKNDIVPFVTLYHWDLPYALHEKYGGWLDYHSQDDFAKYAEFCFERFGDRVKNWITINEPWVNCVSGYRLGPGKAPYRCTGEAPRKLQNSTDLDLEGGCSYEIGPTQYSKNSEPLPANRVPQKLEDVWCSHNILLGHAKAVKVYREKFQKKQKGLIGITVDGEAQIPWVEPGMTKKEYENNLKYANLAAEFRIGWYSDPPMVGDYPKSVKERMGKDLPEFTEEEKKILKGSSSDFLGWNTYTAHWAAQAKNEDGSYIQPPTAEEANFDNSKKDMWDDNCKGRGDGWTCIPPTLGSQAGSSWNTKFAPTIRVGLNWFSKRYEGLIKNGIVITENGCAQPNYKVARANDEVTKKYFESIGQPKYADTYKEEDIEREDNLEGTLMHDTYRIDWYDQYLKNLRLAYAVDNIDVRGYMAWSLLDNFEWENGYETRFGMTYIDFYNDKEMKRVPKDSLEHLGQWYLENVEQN
Description: (§1) β-Glucosidase (.rho.-nitrophenyl-β-D-glucosidase [.rho.NPGase]) and cellobiase activities were determined by the following standard procedures. With .rho.-nitrophenyl-β-D-glucoside (.rho.NPG) as the substrate, the reaction mixture of 1.2 ml contained 0.3 ml of appropriately diluted enzyme solution, 0.6 ml of 50 mM sodium phosphate buffer, pH 6.0, and 0.3 ml of 12 mM .rho.NPG. The reaction was carried out for 10 min at 40° C. and stopped by the addition of 2.4 ml of 1M Na2 CO3. The liberated .rho.-nitrophenol was measured spectrophotometrically at 405 nm [Herr et al. (1978) Appl. Microbiol. Biotechnol. 5:29-36; Chen et al. (1992) Biochem. Biophys. Acta. 1121:54-60]. Cellobiase activity was determined by using a reaction mixture of 2 ml containing 1 ml of appropriately diluted enzyme solution in 50 mM sodium phosphate buffer, pH 6.0, and 1 ml of 2 mM cellobiose. The reaction was carried out at 40° C. for 30 min and was stopped by placing the assay tubes in boiling water for 5 min. Liberated glucose was measured with a glucose determination kit (Sigma Chemical Co., St. Louis, Mo.) according to the manufacturer's instructions. One unit of β-glucosidase or cellobiase activity is defined as the amount of enzyme required to hydrolyze 1 μmole of substrate per min. Specific activity is expressed as unit per milligram of protein. […]

[10] = substrate: O=[N+]([O-])c1ccc(O[C@@H]2O[C@H](CO)[C@@H](O)[C@H](O)[C@H]2O)cc1; assay: as above; assay type: biochemical, Orpinomyces sp. strain PC-2; details: other: 40° C. and pH 6.0
Description: as §1

[11] = substrate: OC[C@H]1O[C@@H](O[C@H]2[C@H](O)[C@@H](O)C(O)O[C@@H]2CO)[C@H](O)[C@@H](O)[C@@H]1O; assay: as above; assay type: biochemical, Orpinomyces sp. strain PC-2; details: other: 40° C. and pH 6.0
Description: as §1

[12] = read-out: Cellobiose affinity (Km)
[13] = read-out: Glucose inhibition (Ki)

OC[C@H]1O[C@@H](O[C@H]2[C@H](O)[C@@H](O)C(O)O[C@@H]2CO)[C@H](O)[C@@H](O)[C@@H]1O (stereo partly drawn) [Cellobiose, cellobiose (β-1,4-glucobiose)]
Km [1, 12]: 250 µM
Km [2, 12]: 2100 µM
Km [3]: 890 µM
Km [4, 12]: 1000 µM
Km [5, 12]: 5650 µM
Km [6, 12]: 19000 µM
Km [7, 12]: 830 µM
Km [8]: 77000 µM

OC[C@H]1OC(O)[C@H](O)[C@@H](O)[C@@H]1O (stereo partly shown) [Glucose]
Ki [9]: 3600 µM
Ki [1, 13]: 8750 µM
Ki [2, 13]: 620 µM
Ki [4, 13]: 5480 µM
Ki [5, 13]: 1000 µM
Ki [6, 13]: 420 µM
Ki [7, 13]: 500 µM

O=C1O[C@H](CO)[C@@H](O)[C@H](O)[C@H]1O [glucono-1,5-lactone, reference compound]
Ki ([9]; competitive inhibition, pNPG and cellobiose as substrates, read-out: Ki of glucono-1,5-lactone): 50 µM

O=[N+]([O-])c1ccc(O[C@@H]2O[C@H](CO)[C@@H](O)[C@H](O)[C@H]2O)cc1 [pNPG, .rho.-nitrophenyl-β-D-glucoside, reference compound]
Km ([1]; read-out: Km (pNPG as substrate)): 350 µM

B1: Orpinomyces sp. strain PC-2 β-glucosidase BglA, recombinant, secreted from S. cerevisiae, SEQ ID NO:2 (Orpinomyces sp. PC-2) (protein)
chain: T1 sequence (Q9UUQ3 17-657)
Km [10]: 762 µM
Km [11]: 310 µM
